Values of other authors, collected in patent publication US20060083768A1, “Method of thickening a coating using a drug” (ATRIUM MEDICAL CORPORATION, priority 2004, published 2006).

System: Porcine Coronary Model
Conditions: stents coated with agent solubilized in eicosapentaenoic acid oil vs eicosapentaenoic acid oil coated stents

Compound: C=C1[C@@H](C)[C@H]2[C@H](Cc3ccccc3)NC(=O)[C@]23[C@H](OC(C)=O)/C=C/[C@@](C)(O)C(=O)[C@@H](C)C/C=C/[C@H]3[C@@H]1O [cytochalasin D]
- less area stenosis compared to the control group: 38%
- less intimal hyperplasia compared to the control group: 39%
